A short description of this data set: Stability test (accelerated experiment, sealed PE/aluminum foil bags, 40±2° C., humidity 75±5%). The settings on record: for Purity by HPLC / Appearance / XRPD: 40±2° C., humidity 75±5%.

Experimental: X-ray powder diffractometer model: Rigaku D/max-2200 Cu target; operation condition: scanning speed, 4°/min, scanning step width, 0.01°.
High performance liquid chromatograph, Agilent1100; Chromatographic column: C18, 4.6 mm×250 mm; mobile phase, acetonitrile:0.1% phosphoric acid aqueous solution=65:35 (v:v); Detection wavelength: 240 nm; flow rate, 1.0 ml/min; Column temperature: 25° C.
The bags were electrothermally sealed, and then placed into aluminum foil bags which were also electrothermally sealed.

Regarding “tenvermectin B [crystal form I of tenvermectin B]”, the “Purity by HPLC” value runs as follows: (first month) 99.0; (initial data) 99.1; (second month) 99.1; (sixth month) 98.9; (third month) 98.9. For the same substance, the Appearance entry runs as follows: (first month, cell wraps: White / crystalline / powder) “White”; (initial data, cell wraps over 3 lines: White / crystalline / powder) “White”; (second month, cell wraps: White / crystalline / powder) “White”; (sixth month, cell wraps: White / crystalline / powder) “White”; (third month, cell wraps: White / crystalline / powder) “White”. In addition, the XRPD result runs as follows: (first month, cell wraps: crystal / form I) “crystal”; (initial data, cell wraps over 2 lines: crystal / form I) “crystal”; (second month, cell wraps: crystal / form I) “crystal”; (sixth month, cell wraps: crystal / form I) “crystal”; (third month, cell wraps: crystal / form I) “crystal”. Under “stability experiment”, the “crystal transformation phenomenon in the stability experiment” value is on record as “does not occur”.
